Values of other authors as cited in paper PMC6271218, “Pharmacokinetics, Tissue Distribution and Excretion of Verticinone from F. hupehensis in Rats” (Molecules, 2014).

Parameters: method as in PMID 20446906
Conditions: same dose administered; cited from earlier work

C[C@@H](Oc1cc(-c2cnn(C3CCNCC3)c2)cnc1N)c1c(Cl)ccc(F)c1Cl [PF-02341066]
plasma concentrations, fold higher in male than in female rats: at least 2 fold
